# Reference: patent publication US6737383B1, “Herbicidal oxadiazolidines” (priority 1999, dated 2004)
# Tests used:
# [1] = system: giant foxtail; assay: Test B pre/postemergence giant foxtail; format: in vivo, Setaria faberii
# In short: (§1)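 Herbicidal effect was estimated by eye on a ten-point control scale after plants spent twelve to sixteen days in a greenhouse following soil or foliar treatment. Foliar sprays targeted plants at one to four leaves; all doses were formulated in a non-phytotoxic solvent with surfactant.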
# [2] = system: morningglory; assay: Test B pre/postemergence morningglory; format: in vivo, Ipomoea hederacea
# In short: as §1
# [3] = system: rice; assay: Test B flood test rice; format: in vivo, Oryza sativa; conditions: for Plant response rating, Rice (0 to 10 scale, 0 is no effect, 10 is complete control) / Rice plant response rating (0 to 10 scale, 0 is no effect, 10 is complete control): visual evaluation after twelve to sixteen days; for Rice plant response rating (0 to 10 scale, 0 is no effect, 10 is complete control): under heading Pre-emergence
# In short: (§2)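 Flood test on plants grown to the 2-leaf stage; treated plants kept in greenhouse twelve to sixteen days, then visually rated against controls on a 0 (no effect) to 10 (complete control) scale.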
# [4] = system: duck salad; assay: Test B flood test duck salad; format: in vivo, Heteranthera limosa; conditions: for Plant response rating, Ducksalad (0 to 10 scale, 0 is no effect, 10 is complete control) / Ducksalad plant response rating (0 to 10 scale, 0 is no effect, 10 is complete control): visual evaluation after twelve to sixteen days; for Ducksalad plant response rating (0 to 10 scale, 0 is no effect, 10 is complete control): under heading Pre-emergence
# In short: as §2
# [5] = Preemergence, Rate 62 g/ha, scale of 0 to 10 where 0 is no effect and 10 is complete control
# [6] = Preemergence, Rate 250 g/ha, scale of 0 to 10 where 0 is no effect and 10 is complete control
# [7] = Preemergence, Rate 500 g/ha, scale of 0 to 10 where 0 is no effect and 10 is complete control
# [8] = Rate 62 g/ha, Postemergence, scale 0 to 10, 0 no effect, 10 complete control
# [9] = Rate 125 g/ha, Postemergence, scale of 0 to 10 where 0 is no effect and 10 is complete control
# [10] = Pre-emergence, Rate 1000 g/ha, scale 0 to 10 (0 no effect, 10 complete control)
# [11] = Rate 125 g/ha, Pre-emergence, flood test species, scale 0 to 10 where 0 is no effect and 10 is complete control
# [12] = Rate 250 g/ha, Pre-emergence, flood-test species, scale 0 to 10, 0 is no effect, 10 is complete control
# [13] = Rate 500 g/ha, Pre-emergence, flood test species, scale 0 to 10 (0 no effect, 10 complete control)
# [14] = Rate 62 g/ha, Postemergence, scale of 0 to 10 where 0 is no effect and 10 is complete control
# [15] = Rate 125 g/ha, Postemergence, scale 0 to 10
# [16] = Rate 125 g/ha, Preemergence, scale of 0 to 10 where 0 is no effect and 10 is complete control
# [17] = Rate 500 g/ha, Postemergence, scale 0 to 10, 0 no effect, 10 complete control
# [18] = Rate 62 g/ha, headed Pre-emergence (flood test species), scale 0 to 10 (0 no effect, 10 complete control)
# [19] = Postemergence, Rate 250 g/ha, scale 0 to 10, 0 is no effect, 10 is complete control
# [20] = Postemergence, Rate 500 g/ha, scale of 0 to 10 where 0 is no effect and 10 is complete control
# [21] = Preemergence, Rate 62 g/ha, scale 0 to 10 (0 no effect, 10 complete control)
# [22] = Preemergence, Rate 125 g/ha, scale of 0 to 10 where 0 is no effect and 10 is complete control
# [23] = Preemergence, Rate 250 g/ha, scale 0 to 10, 0 is no effect, 10 is complete control
# [24] = Preemergence, Rate 500 g/ha, scale 0 to 10, 0 is no effect, 10 is complete control
# [25] = Rate 62 g/ha, flood test species, Pre-emergence
# [26] = Rate 125 g/ha, flood test species
# [27] = Rate 250 g/ha, Pre-emergence (flood test species), scale 0 to 10, 0 is no effect, 10 is complete control
# [28] = Postemergence, Rate 250 g/ha, scale 0 to 10
# [29] = Rate 125 g/ha, Postemergence, scale 0 to 10, 0 is no effect, 10 is complete control
# [30] = Postemergence block (flood test species), Rate 250 g/ha, scale 0 to 10
# [31] = Postemergence section (flood test species), Rate 500 g/ha, scale of 0 to 10 where 0 is no effect and 10 is complete control
# [32] = Rate 125 g/ha, Postemergence section (flood test species), scale 0 to 10, 0 is no effect, 10 is complete control
# [33] = Postemergence, Rate 31 g/ha, visual rating, scale 0 to 10 (0 no effect, 10 complete control)
# [34] = Postemergence, Rate 125 g/ha, scale 0 to 10, 0 is no effect, 10 is complete control
# [35] = Preemergence, Rate 125 g/ha, scale 0 to 10, 0 is no effect, 10 is complete control
# [36] = Rate 31 g/ha, Pre-emergence section (flood test species), scale 0 to 10
structure (smiles),measurement,setting,value
Cc1ccccc1-n1c(=O)on(C(=O)N(c2ccc3ccccc3c2)C(C)C)c1=O [Compound 306],Giant foxtail plant response rating,[1]; [5],2
same,Giant foxtail plant response rating (0 to 10 scale),"[1]; Preemergence, Rate 125 g/ha",2
same,Giant foxtail plant response rating,[1]; [6],8
same,Giant foxtail plant response rating,[1]; [7],9
same,Giant foxtail plant response rating,[1]; [8],0
same,Giant foxtail plant response rating,[1]; [9],0
same,"Plant response rating, Giant foxtail","[1]; Rate 250 g/ha, Postemergence, scale of 0 to 10 where 0 is no effect and 10 is complete control",0
same,Morningglory plant response rating,[2]; [5],0
same,Morningglory plant response rating (0 to 10 scale),"[2]; Preemergence, Rate 125 g/ha",0
same,Morningglory plant response rating,[2]; [6],0
same,Morningglory plant response rating,[2]; [7],0
same,Morningglory plant response rating,[2]; [8],2
same,Morningglory plant response rating,[2]; [9],2
same,Rice plant response rating,[3]; [10],0
same,Rice plant response rating,[3]; [11],0
same,Rice plant response rating,[3]; [12],0
same,Rice plant response rating,[3]; [13],0
same,Ducksalad plant response rating,[4]; [10],0
same,Ducksalad plant response rating,[4]; [11],0
same,Ducksalad plant response rating,[4]; [12],0
same,Ducksalad plant response rating,[4]; [13],0
Cc1cc(C)c(-n2c(=O)on(C(=O)N(c3ccc(F)cc3)C(C)C)c2=O)c(Br)c1 [Compound 224],Giant foxtail plant response rating,[1]; [5],3
same,Giant foxtail plant response rating,[1]; [6],9
same,"Plant response rating, Giant foxtail",[1]; [7],10
same,Giant foxtail plant response rating,[1]; [14],0
same,Giant foxtail plant response rating,[1]; [15],0
same,Giant foxtail plant response rating,[1]; [16],7
same,"Plant response rating (0 to 10; 0 is no effect, 10 is complete control), Giant foxtail","[1]; Rate 250 g/ha, Postemergence",4
same,Giant foxtail plant response rating,[1]; [17],0
same,Morningglory plant response rating,[2]; [5],0
same,Morningglory plant response rating,[2]; [6],0
same,"Plant response rating, Morningglory",[2]; [7],0
same,Morningglory plant response rating,[2]; [14],2
same,Morningglory plant response rating,[2]; [15],2
same,Morningglory plant response rating,[2]; [16],0
same,"Plant response rating (0 to 10; 0 is no effect, 10 is complete control), Morningglory","[2]; Rate 250 g/ha, Postemergence",5
same,Morningglory plant response rating,[2]; [17],6
same,Rice plant response rating,[3]; [18],0
same,Rice plant response rating,[3]; [11],0
same,Rice plant response rating,[3]; [12],0
same,Rice plant response rating,[3]; [13],0
same,Ducksalad plant response rating,[4]; [18],0
same,Ducksalad plant response rating,[4]; [11],0
same,Ducksalad plant response rating,[4]; [12],0
same,Ducksalad plant response rating,[4]; [13],0
C=CC[Si](C)(C)Cn1c(=O)on(C(=O)N(c2ccc(Cl)cc2)C(C)C)c1=O [Compound 414],"Plant response rating, Giant foxtail",[1]; [19],6
same,Giant foxtail plant response rating,[1]; [20],9
same,"Plant response rating, Giant foxtail",[1]; [21],2
same,"Plant response rating, Giant foxtail",[1]; [22],9
same,Giant foxtail plant response rating,[1]; [23],10
same,Giant foxtail plant response rating,[1]; [24],10
same,Giant foxtail plant response rating,[1]; [14],3
same,"Plant response rating, Morningglory",[2]; [19],7
same,Morningglory plant response rating,[2]; [20],8
same,"Plant response rating, Morningglory",[2]; [21],0
same,"Plant response rating, Morningglory",[2]; [22],0
same,Morningglory plant response rating,[2]; [23],0
same,Morningglory plant response rating,[2]; [24],0
same,"Plant response rating, Rice (0 to 10 scale, 0 is no effect, 10 is complete control)",[3]; [25],0
same,"Rice plant response rating (0 to 10 scale, 0 is no effect, 10 is complete control)",[3]; [26],0
same,Rice plant response rating,[3]; [27],0
same,Rice plant response rating,[3]; [13],0
same,"Plant response rating, Ducksalad (0 to 10 scale, 0 is no effect, 10 is complete control)",[4]; [25],0
same,"Ducksalad plant response rating (0 to 10 scale, 0 is no effect, 10 is complete control)",[4]; [26],0
same,Ducksalad plant response rating,[4]; [27],0
same,Ducksalad plant response rating,[4]; [13],0
CC(C)N(C(=O)n1oc(=O)n(CC#N)c1=O)c1ccc(F)cc1F [Compound 431],Giant foxtail plant response rating,[1]; [28],0
same,Giant foxtail plant response rating,[1]; [20],6
same,"Plant response rating, Giant foxtail",[1]; [21],0
same,"Plant response rating, Giant foxtail",[1]; [22],0
same,Giant foxtail plant response rating,[1]; [23],2
same,Giant foxtail plant response rating,[1]; [24],3
same,Giant foxtail plant response rating,[1]; [14],0
same,Giant foxtail plant response rating,[1]; [29],0
same,Morningglory plant response rating,[2]; [28],1
same,Morningglory plant response rating,[2]; [20],2
same,"Plant response rating, Morningglory",[2]; [21],0
same,"Plant response rating, Morningglory",[2]; [22],0
same,Morningglory plant response rating,[2]; [23],0
same,Morningglory plant response rating,[2]; [24],0
same,Morningglory plant response rating,[2]; [29],1
same,Rice plant response rating,[3]; [30],0
same,Rice plant response rating,[3]; [31],0
same,Rice plant response rating,[3]; [32],0
same,Ducksalad plant response rating,[4]; [30],0
same,Ducksalad plant response rating,[4]; [31],0
same,Ducksalad plant response rating,"[4]; Rate 62 g/ha, Postemergence (flood test species), scale of 0 to 10 where 0 is no effect and 10 is complete control",0
same,Ducksalad plant response rating,[4]; [32],0
CC(C)N(C(=O)n1oc(=O)n(CC[N+](=O)[O-])c1=O)c1ccc(Cl)cc1 [Compound 483],Giant foxtail plant response rating,[1]; [33],0
same,Giant foxtail plant response rating,[1]; [34],0
same,Giant foxtail plant response rating,[1]; [28],0
same,Giant foxtail plant response rating,"[1]; Preemergence, Rate 31 g/ha, visual rating, scale 0 to 10 (0 no effect, 10 complete control)",0
same,"Plant response rating, Giant foxtail",[1]; [5],0
same,Giant foxtail plant response rating,[1]; [35],0
same,Giant foxtail plant response rating,[1]; [23],0
same,Giant foxtail plant response rating,[1]; [8],0
same,Morningglory plant response rating,[2]; [33],0
same,Morningglory plant response rating,[2]; [34],0
same,Morningglory plant response rating,[2]; [28],0
same,"Plant response rating, Morningglory",[2]; [5],0
same,Morningglory plant response rating,[2]; [35],0
same,Morningglory plant response rating,[2]; [23],0
same,Morningglory plant response rating,[2]; [8],0
same,Rice plant response rating,[3]; [36],0
same,"Plant response rating, Rice (0 to 10 scale, 0 is no effect, 10 is complete control)",[3]; [25],0
same,"Rice plant response rating (0 to 10 scale, 0 is no effect, 10 is complete control)",[3]; [26],0
same,Rice plant response rating,[3]; [27],0
same,Ducksalad plant response rating,[4]; [36],0
same,"Plant response rating, Ducksalad (0 to 10 scale, 0 is no effect, 10 is complete control)",[4]; [25],0
same,"Ducksalad plant response rating (0 to 10 scale, 0 is no effect, 10 is complete control)",[4]; [26],0
same,Ducksalad plant response rating,[4]; [27],0
